Assay results: PMC3131587, “Sulfotyrosine Recognition as Marker for Druggable Sites in the Extracellular Space” (International Journal of Molecular Sciences, 2011)

What was measured:
[1] = biological target: CCL5 (Homo sapiens) (UniProt P13501); settings: cited from earlier work
[2] = biological target: T1, CCL5 (Homo sapiens, UniProt P13501); assay: 2D 1H-15N HSQC NMR titration; type: binding; settings: 50 mM NaPO4 pH 3.2, 25 °C; 125 μM protein (dimeric); 0-100 mM ligand
T1 construct: [U-15N] recombinant mature chemokine, signal peptide removed; dimeric in the assay
T1 sequence (P13501 24-91): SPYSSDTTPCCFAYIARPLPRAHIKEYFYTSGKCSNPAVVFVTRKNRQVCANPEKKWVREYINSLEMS

[3] = biological target: T2, CX3CL1 (Homo sapiens, UniProt P78423); assay: 2D 1H-15N HSQC NMR titration; type: binding; settings: unbuffered pH 3.6, 25 °C; 250 μM protein; 0-100 mM ligand
T2 sequence (P78423 25-100): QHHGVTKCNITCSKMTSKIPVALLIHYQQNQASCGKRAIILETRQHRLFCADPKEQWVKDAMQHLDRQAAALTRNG

[4] = biological target: T3, CXCL12 (Homo sapiens, UniProt P48061); assay: 2D 1H-15N HSQC NMR titration; type: binding; settings: 25 mM d-MES pH 6.8, 37 °C; 250 μM protein; 0-100 mM ligand; shifts at the sTyr21 and sTyr12 sites
T3 construct: [U-15N] recombinant mature chemokine, signal peptide removed; predominantly monomer under assay conditions

For CCL5 (from UniProt P13501), which Kd [1] is on record?
The Kd was 35 µM.

With `N[C@@H](Cc1ccc(OS(=O)(=O)O)cc1)C(=O)O` [sulfotyrosine] as the molecule, how does the chemical shift perturbation [2] read?
Its chemical shift perturbation is “Residues His23, Lys45, and Arg47 identified in our titration”.

What about the chemical shift perturbation [3] of the same molecule?
The chemical shift perturbation was “Sulfotyrosine titration produced significant perturbations in CX3CL1 residues”.

What about the chemical shift perturbation [4] of the same molecule?
The chemical shift perturbation was “HSQC spectral overlays (Figure 4A) demonstrate significant chemical shift perturbations in the chemokine”.
